Among the data in patent US8158672B2, “Fluoroalkoxy-substituted 1,3-dihydro-isoindolyl compounds and their pharmaceutical uses” (Celgene Corporation, priority 2002, dated 2012) are melting point values, retold here.

Each structure is given as a SMILES string.

Turning to `CC(=O)Nc1cccc2c1C(=O)N(C(CC(=O)N(C)C)c1ccc(OC(F)F)c(OCC3CC3)c1)C2=O` (centres unmarked) [Example 5, 3-(4-Acetylamino-1,3-dioxo-1,3-dihydro-isoindol-2-yl)-3-(3-cyclopropylmethoxy-4-difluoromethoxy-phenyl)-N,N -dimethyl-propionamide], the melting point lay within 80 to 82 °C.

Turning to `CC(=O)Nc1cccc2c1C(=O)N(C(CC(N)=O)c1ccc(OC(F)F)c(OCC3CC3)c1)C2=O` (centres unmarked) [Example 6, 3-(4-Acetylamino-1,3-dioxo-1,3-dihydro-isoindol-2-yl) -3-(3 cyclopropylmethoxy-4-difluoromethoxy-phenyl) -propionamide], the melting point was in the range of 77 to 79 °C. Under `O=C(CC(c1ccc(OC(F)F)c(OCC2CC2)c1)N1C(=O)c2ccccc2C1=O)NO` (centres unmarked) [Example 8, 3-(3-Cyclopropylmethoxy-4-difluoromethoxy-phenyl) -3-(1,3-dioxo-1,3-dihydro-isoindol-2-yl)-N-hydroxy-propionamide] stands 129 to 131 °C; under `CN(C)C(=O)CC(c1ccc(OC(F)F)c(OCC2CC2)c1)N1Cc2cccc(N)c2C1=O` (centres unmarked) [Example 14, 3-(7-Amino-1-oxo-1,3-dihydro-isoindol-2-yl)-3-(3-cyclopropylmethoxy-4-difluoromethoxy-phenyl)-N,N-dimethyl-propionamide], 70 to 72 °C; under `CCOc1cc(C(CC(=O)O)N2Cc3cccc(NC(C)=O)c3C2=O)ccc1OC(F)F` (centres unmarked) [Example 22, 3-(7-Acetylamino-1-oxo-1,3-dihydro-isoindol-2-yl)-3-(4-difluoromethoxy-3-ethoxy-phenyl)-propionic acid], 105 to 107 °C. The value for `CCOc1cc(C(CC(N)=O)N2Cc3cccc(NC(=O)C4CC4)c3C2=O)ccc1OC(F)F` (centres unmarked) [Example 24, Cyclopropanecarboxylic acid {2-[2-carbamoyl-1-(4-difluoromethoxy-3-ethoxy-phenyl)-ethyl]-3-oxo-2,3-dihydro-1H -isoindol-4-yl}-amide] was 179 to 181 °C; that for `CCOc1cc(C(CC(=O)N(C)C)N2Cc3cccc(NC(=O)C4CC4)c3C2=O)ccc1OC(F)F` (centres unmarked) [Example 25, Cyclopropanecarboxylic acid {2-[1-(4-difluoromethoxy-3-ethoxy-phenyl)-2-dimethylcarbamoyl-ethyl]-3-oxo-2,3-dihydro-1H-isoindol-4-yl}-amide] was 135 to 137 °C.

The compound `CCOc1cc(C(CC(=O)NO)N2Cc3cccc(NC(=O)C4CC4)c3C2=O)ccc1OC(F)F` (centres unmarked) [Example 26, Cyclopropanecarboxylic acid {2-[1-(4-difluoromethoxy-3-ethoxy-phenyl)-2-hydroxycarbamoyl-ethyl]-3-oxo-2,3-dihydro-1H-isoindol-4-yl}-amide] registered a melting point of 116 to 118 °C. Under `CCOc1cc(C(CC(N)=O)N2Cc3cccc(NC(C)=O)c3C2=O)ccc1OC(F)F` (centres unmarked) [Example 27, 3-(7-Acetylamino-1-oxo-1,3-dihydro-isoindol-2-yl)-3-(4-difluoromethoxy-3-ethoxy-phenyl)-propionamide] stands 129 to 131 °C. Compound `CCOc1cc(C(CC(=O)N(C)C)N2Cc3cccc(NC(C)=O)c3C2=O)ccc1OC(F)F` (centres unmarked) [Example 28, 3-(7-Acetylamino-1-oxo-1,3-dihydro-isoindol-2-yl)-3-(4-difluoromethoxy-3-ethoxy-phenyl)-N,N-dimethyl-propionamide] gave a melting point of 141 to 143 °C.

For `CCOc1cc(C(CC(=O)NO)N2Cc3cccc(NC(C)=O)c3C2=O)ccc1OC(F)F` (centres unmarked) [Example 29, 3-(7-Acetylamino-1-oxo-1,3-dihydro-isoindol-2-yl)-3-(4-difluoromethoxy-3-ethoxy-phenyl)-N-hydroxy-propionamide], the melting point was in the range of 121 to 123 °C.

Take `CCOc1cc(C(CC(=O)O)N2C(=O)c3cccc(NC(C)=O)c3C2=O)ccc1OC(F)F` (centres unmarked) [Example 30, 3-(4-Acetylamino-1,3-dioxo-1,3-dihydro-isoindol-2-yl)-3-(4-difluoromethoxy-3-ethoxy-phenyl)-propionic acid]: the melting point is 89 to 91 °C. As to `CCOc1cc(C(CC(N)=O)N2C(=O)c3cccc(NC(C)=O)c3C2=O)ccc1OC(F)F` (centres unmarked) [Example 31, 3-(4-Acetylamino-1,3-dioxo-1,3-dihydro-isoindol-2-yl)-3-(4-difluoromethoxy-3-ethoxy-phenyl)-propionamide], the melting point was 178 to 180 °C. The value for `CCOc1cc(C(CC(=O)N(C)C)N2C(=O)c3cccc(NC(C)=O)c3C2=O)ccc1OC(F)F` (centres unmarked) [Example 32, 3-(4-Acetylamino-1,3-dioxo-1,3-dihydro-isoindol-2-yl)-3-(4-difluoromethoxy-3-ethoxy-phenyl)-N,N-dimethyl-propionamide] was 163 to 165 °C; that for `CCOc1cc(C(CC(=O)NO)N2C(=O)c3cccc(NC(C)=O)c3C2=O)ccc1OC(F)F` (centres unmarked) [Example 33, 3-(4-Acetylamino-1,3-dioxo-1,3-dihydro-isoindol-2-yl)-3-(4-difluoromethoxy-3-ethoxy-phenyl)-N-hydroxy-propionamide] was 148 to 150 °C; that for `CCOc1cc(C(CS(C)(=O)=O)N2Cc3cccc(NC(=O)C4CC4)c3C2=O)ccc1OC(F)F` (centres unmarked) [Example 35, Cyclopropanecarboxylic acid {2-[1-(4-difluoromethoxy-3-ethoxy-phenyl)-2-methanesulfonyl-ethyl]-3-oxo-2,3-dihydro-1H-isoindol-4-yl}-amide] was 115 to 117 °C.

Consider `CCOc1cc(C(CS(C)(=O)=O)N2C(=O)c3cccc(NC(C)=O)c3C2=O)ccc1OC(F)F` (centres unmarked) [Example 36], for which the melting point was in the range of 118 to 120 °C. Compound `CCOc1cc(C(CC(N)=O)N2Cc3c(Cl)ccc(NC(=O)C4CC4)c3C2=O)ccc1OC(F)F` (centres unmarked) [Example 37, Cyclopropanecarboxylic acid {2-[2-carbamoyl-1-(4-difluoromethoxy-3-ethoxy-phenyl)-ethyl]-7-chloro-3-oxo-2,3-dihydro-1H-isoindol-4-yl}-amide] displayed a melting point of 198 to 200 °C.

In turn, `CCOc1cc(C(CC(=O)N2CCOCC2)N2C(=O)c3cccc(NC(C)=O)c3C2=O)ccc1OC(F)F` (centres unmarked) [Example 38, N-{2-[1-(4-Difluoromethoxy-3-ethoxy-phenyl)-3-morpholin-4-yl-3-oxo-propyl]-1,3-dioxo-2,3-dihydro-1H-isoindol-4-yl}-acetamide] returned a melting point of 109 to 111 °C. Under `CCOc1cc(C(CC(=O)N2CCOCC2)N2Cc3cccc(NC(C)=O)c3C2=O)ccc1OC(F)F` (centres unmarked) [Example 39, N-{2-[1-(4-Difluoromethoxy-3-ethoxy-phenyl)-3-morpholin-4-yl-3-oxo-propyl]-3-oxo-2,3-dihydro-1H-isoindol-4-yl}-acetamide] stands 164 to 166 °C; under `CC(=O)Nc1cccc2c1C(=O)N(C(CC(=O)N(C)C)c1ccc(OC(F)F)c(OC(F)F)c1)C2=O` (centres unmarked) [Example 40, 3-(4-Acetylamino-1,3-dioxo-1,3-dihydro-isoindol-2-yl)-3-(3,4-bis-difluoromethoxy-phenyl)-N,N-dimethyl-propionamide], 83 to 85 °C. Compound `COC(=O)CC(c1ccc(OC(F)F)c(OC(F)F)c1)N1Cc2c(Cl)ccc(NC(=O)C3CC3)c2C1=O` (centres unmarked) [Example 41, 3-(3,4-Bis-difluoromethoxy-phenyl)-3-[4-chloro-7-(cyclopropanecarbonyl-amino)-1-oxo-1,3-dihydro-isoindol-2-yl]-propionic acid methyl ester] yielded a melting point of 175 to 177 °C. As for `CN(C)C(=O)CC(c1ccc(OC(F)F)c(OC(F)F)c1)N1Cc2cccc(NC(=O)C3CC3)c2C1=O` (centres unmarked) [Example 42, Cyclopropanecarboxylic acid {2-[1-(3,4-bis-difluoromethoxy-phenyl)-2-dimethylcarbamoyl-ethyl]-3-oxo-2,3-dihydro-1H-isoindol-4-yl}-amide], the melting point was 158 to 160 °C. As to `NC(=O)CC(c1ccc(OC(F)F)c(OC(F)F)c1)N1Cc2cccc(NC(=O)C3CC3)c2C1=O` (centres unmarked) [Example 43, Cyclopropanecarboxylic acid {2-[1-(3,4-bis-difluoromethoxy-phenyl)-2-carbamoyl-ethyl]-3-oxo-2,3-dihydro-1H-isoindol-4-yl}-amide], the melting point lay in the range of 198 to 200 °C.

`O=C(CC(c1ccc(OC(F)F)c(OC(F)F)c1)N1Cc2cccc(NC(=O)C3CC3)c2C1=O)NO` (centres unmarked) [Example 44, Cyclopropanecarboxylic acid {2-[1-(3,4-bis-difluoromethoxy-phenyl)-2-hydroxycarbamoyl-ethyl]-3-oxo-2,3-dihydro-1H-isoindol-4-yl}-amide] yielded a melting point of 191 to 193 °C.

Turning to `O=C(O)CC(c1ccc(OC(F)F)c(OC(F)F)c1)N1Cc2cccc(NC(=O)C3CC3)c2C1=O` (centres unmarked) [Example 45, 3-(3,4-Bis-difluoromethoxy-phenyl)-3-[7-(cyclopropanecarbonyl-amino)-1-oxo-1,3-dihydro-isoindol-2-yl]-propionic acid], the melting point lay within 94 to 96 °C.
